Test results published in the supplement of paper PMC10307832.

Experiments:
Experiment in all cases: relative viability (nuclei count vs DMSO), 5 days (fraction); higher = more cells survive
Erlotinib + Olaparib = compound: C#Cc1cccc(Nc2ncnc3cc(OCCOC)c(OCCOC)cc23)c1 [Erlotinib] + O=C(c1cc(Cc2n[nH]c(=O)c3ccccc23)ccc1F)N1CCN(C(=O)C2CC2)CC1 [Olaparib] (partner 8 µM)
In short: (§1)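 Nuclei were stained with Hoechst during a one-step fixation (final 0.05% Triton X-100, 1% formaldehyde, 1 ug/ml Hoechst) carried out 5 days after dosing, then counted on 4× images. The cells, lung cancer lines in 1536-well plates, had been dosed by pin tool the day after seeding with one drug alone or a fixed anchor-drug dose plus five library-drug doses (not always all listed) in √10 steps. Relative viability is the nuclei count in treated wells divided by that in vehicle wells, and each value is the median of duplicate plates.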

Erlotinib + Pictilisib = compound: C#Cc1cccc(Nc2ncnc3cc(OCCOC)c(OCCOC)cc23)c1 [Erlotinib] + CS(=O)(=O)N1CCN(Cc2cc3nc(-c4cccc5[nH]ncc45)nc(N4CCOCC4)c3s2)CC1 [Pictilisib] (partner 1 µM)
In short: as §1

AT9283 + Alpelisib = compound: O=C(Nc1c[nH]nc1-c1nc2ccc(CN3CCOCC3)cc2[nH]1)NC1CC1 [AT9283] + Cc1nc(NC(=O)N2CCC[C@H]2C(N)=O)sc1-c1ccnc(C(C)(C)C(F)(F)F)c1 [Alpelisib] (partner 2 µM)
In short: as §1

Erlotinib + Navitoclax = compound: C#Cc1cccc(Nc2ncnc3cc(OCCOC)c(OCCOC)cc23)c1 [Erlotinib] + CC1(C)CCC(c2ccc(Cl)cc2)=C(CN2CCN(c3ccc(C(=O)NS(=O)(=O)c4ccc(N[C@H](CCN5CCOCC5)CSc5ccccc5)c(S(=O)(=O)C(F)(F)F)c4)cc3)CC2)C1 [Navitoclax] (partner 0.5 µM)
In short: as §1

Erlotinib + OSI-027 = compound: C#Cc1cccc(Nc2ncnc3cc(OCCOC)c(OCCOC)cc23)c1 [Erlotinib] + COc1cccc2cc(-c3nc([C@H]4CC[C@H](C(=O)O)CC4)n4ncnc(N)c34)[nH]c12 [OSI-027] (partner 0.5 µM)
In short: as §1

Cell Line NCI-H441 has a relative viability (Erlotinib + Olaparib; first compound 0.02 µM) of 0.626, a relative viability (Erlotinib + Olaparib; first compound 0.2 µM) of 0.54 and a relative viability (Erlotinib + Olaparib; first compound 0.6325 µM) of 0.534. The relative viability (Erlotinib + Olaparib; first compound 2 µM) was 0.495, the relative viability (Erlotinib + Pictilisib; first compound 0.02 µM) was 0.448 and the relative viability (Erlotinib + Pictilisib; first compound 0.2 µM) was 0.495. For the same cell line, the relative viability (Erlotinib + Pictilisib; first compound 0.6325 µM) was 0.393, the relative viability (Erlotinib + Pictilisib; first compound 2 µM) was 0.392 and the relative viability (AT9283 + Alpelisib; first compound 0.003 µM) was 0.717. For the same cell line, the relative viability (AT9283 + Alpelisib; first compound 0.03 µM) was 0.641, the relative viability (AT9283 + Alpelisib; first compound 0.09487 µM) was 0.235 and the relative viability (AT9283 + Alpelisib; first compound 0.3 µM) was 0.198. The relative viability (Erlotinib + Navitoclax; first compound 0.02 µM) was 1.03, the relative viability (Erlotinib + Navitoclax; first compound 0.2 µM) was 0.805 and the relative viability (Erlotinib + Navitoclax; first compound 0.6325 µM) was 0.555. For the same cell line, the relative viability (Erlotinib + Navitoclax; first compound 2 µM) was 0.302, the relative viability (Erlotinib + OSI-027; first compound 0.02 µM) was 0.603 and the relative viability (Erlotinib + OSI-027; first compound 0.6325 µM) was 0.535. It also gave a relative viability (Erlotinib + OSI-027; first compound 2 µM) of 0.355.
